# Measurements: patent publication US20230096528A1, “Pharmaceutical Composition for Treatment or Prevention of Multiple Inflammatory disorders” (priority 2019, published 2023)
# Key:
# [1] = system: biomarkers (chemokines, CSFs, interleukins, IFNs); assay: Biomarkers compared across many studies (Table 2); type: in vivo; conditions: PO 92.4 mg/kg DA BID
# Protocol: The many examples provided herein show the effect of the denatonium salts on various in vivo and in vitro models of various disease indications. In addition, blood samples were taken from the tested (and control) animals and various biomarkers were measured and compared. FIGS. 70A-C show graphs comparing biomarkers across many studies. […] It should be noted that clusters of multiple biomarkers predict effectiveness for each disease indication and that grouping is shown in FIG. 71.
# [2] = system: microbial populations in a nonalcoholic steatohepatitis (NASH) mouse model; assay: Microbiome study in NASH mouse model on AMLN diet (Example 4); type: in vivo, C57BL/6 mice
# Description: There were changes in the microbiome in a mice model using a high-fat diet after 4 weeks of treatment with and without administering DA orally. The high fat diet itself induced extensive changes in the microbial populations in all groups. Importantly though, there was a pronounced difference between the DA treatment group and the control group at week 4.
# Classifications of the different organisms that changed in the control and treatment groups at 4 weeks and observed extensive changes in the primary or dominant phylum groups of bacteria, as well as on a family and genus level were made. […] The diversity at 4 weeks dropped over the study course in both control and treatment group due to dietary impact.
# The genetic potential of treatment-induced changes in relation to predicted physiological and metabolic pathways were aligned with observed benefits of treatment with DA with regards to attenuating inflammation and metabolic syndrome. The majority of the pathways being impacted were directly related to a decrease in inflammation and are known to be beneficial to cardiovascular health and other conditions related to the metabolic syndrome in humans. Observations included: • Increased metabolism of unsaturated fatty acids • Increased metabolism of arachidonic acid • Increased metabolism of cofactors and vitamins • Increased lysine degradation • Increased glycolysis and gluconeogenesis • Increased phosphatidylinositol signaling • Decreased arginine and ornithine metabolism Below Changes from Phylum à Family à Genus Level
# The effect of a small molecule oral TAS2R agonist (DA) was investigated on microbial populations in a nonalcoholic steatohepatitis (NASH) mouse model. Two groups of 4-week-old male C57BL/6 mice (20/group) were fed Amylin Liver NASH (AMLN) diet and received daily doses of ARD-101 (30 mg/mL in water) or vehicle (water) via intragastric gavage. DNA was isolated from fecal samples collected at week 0 and 4, and microbial ecology was evaluated using bTEFAP (bacterial tag-encoded FLX amplicon pyrosequencing). Operational taxonomic units were classified using BLAST against a curated NCBI database. Diversity within specific ecosystems and microbial community structures was analyzed with Qiime 2. Differences were determined by repeated measures ANOVA and post hoc pairwise comparisons using Tukey's test. Taxonomic classification data were evaluated with a dual hierarchal dendrogram.
# [3] = system: leptin-deficient (ob/ob) mice; assay: Denatonium acetate on body weight in leptin-deficient (ob/ob) mice (Example 1); type: in vivo
# Protocol: This example describes an in vivo study of denatonium acetate on body weight in leptin-deficient (ob/ob) mice. Adult leptin-deficient mice (homozygote, ob/ob mice) fed with high-fat diet. There was a vehicle control group (15 mice) that were treated with distilled water by gavage BID. […] Body weights and body weight changes were determined at days 1, 3, 7, 10, 14, 21, 24 and 28. Food intake was determined on days 3, 7, 10, 14, 17, 21, […] and 28. On day 28 blood samples were taken for cytokine analysis, HbA1c, HDL, LDL, insulin, and bile acids.
# healthy mouse = assay: Cytokine profile and routes of administration in healthy mouse (Example 6); conditions: healthy mice
# [4] = AMLN diet mice, daily gavage, week 4, DA vs vehicle
# [5] = treatment at 4 weeks versus baseline and control
# [6] = 23.1 mg/kg BID gavage, vs vehicle
# [7] = 23.1 mg/kg BID gavage, vs vehicle, no statistically significant difference
structure (smiles),measurement,setting,value
"CC(=O)[O-].CC[N+](CC)(CC(=O)Nc1c(C)cccc1C)Cc1ccccc1 [DA, denatonium acetate]",Eotaxin: Decreased Percentage Compared to Vehicle,[1],−18.6%
same,G-CSF: Decreased Percentage Compared to Vehicle,[1],−37.5%
same,GM-CSF: Decreased Percentage Compared to Vehicle,[1],−2.3%
same,IFN-γ: Decreased Percentage Compared to Vehicle,[1],−37.3%
same,IL-1α: Decreased Percentage Compared to Vehicle,[1],−18.2%
same,IL-1β: Decreased Percentage Compared to Vehicle,[1],−12.0%
same,IL-3: Decreased Percentage Compared to Vehicle,[1],−74.5%
same,IL-5: Decreased Percentage Compared to Vehicle,[1],−29.1%
same,IL-6: Decreased Percentage Compared to Vehicle,[1],−34.2%
same,IL-10: Decreased Percentage Compared to Vehicle,[1],−92.5%
same,IL-12 (p70): Decreased Percentage Compared to Vehicle,[1],−28.0%
same,IL-17: Decreased Percentage Compared to Vehicle,[1],−21.2%
same,KC: Decreased Percentage Compared to Vehicle,[1],−21.6%
same,LIX: Decreased Percentage Compared to Vehicle,[1],−7.3%
same,MCP-1: Decreased Percentage Compared to Vehicle,[1],−24.2%
same,MIG: Decreased Percentage Compared to Vehicle,[1],−13.2%
same,MIP-1α: Decreased Percentage Compared to Vehicle,[1],−3.4%
same,MIP-1β: Decreased Percentage Compared to Vehicle,[1],−10.2%
same,MIP-2: Decreased Percentage Compared to Vehicle,[1],−76.3%
same,RANTES: Decreased Percentage Compared to Vehicle,[1],−20.6%
same,Microbiome pathways for biosynthesis of unsaturated fatty acids,[2]; 4-week DA treatment,significant enrichment
same,Microbiome pathways for glycolysis and gluconeogenesis,[2]; 4-week DA treatment,significant enrichment
same,Microbiome pathways for lysine degradation,[2]; 4-week DA treatment,significant enrichment
same,Microbiome pathways for metabolism of arachidonic acid,[2]; 4-week DA treatment,significant enrichment
same,Microbiome pathways for metabolism of cofactors and vitamins,[2]; 4-week DA treatment,significant enrichment
same,Microbiome phosphatidylinositol signaling,[2]; 4-week DA treatment,significant enrichment
same,Microbiome signaling for arginine and ornithine metabolism,[2]; 4-week DA treatment,significantly decreased
same,SCFAs in feces,"[2]; AMLN diet mice, DA treatment",mitigated the diet-induced decrease
same,Proteobacteria (phylum) in fecal microbiome,"[2]; AMLN diet mice, daily gavage (30 mg/mL in water), week 4, DA vs vehicle",significant increases
same,Cyanobacteria (phylum) in fecal microbiome,[2]; [4],significant increases
same,Deferribacteres (phylum) in fecal microbiome,[2]; [4],significant decreases
same,Firmicutes (phylum) in fecal microbiome,[2]; [4],significant decreases
same,Spirochetes (phylum) in fecal microbiome,[2]; [4],significant decreases
same,Verrucomicrobia (phylum) in fecal microbiome,[2]; [4],significant increases
same,Diversity within ecosystems and microbial communities,"[2]; DA versus vehicle group at week 4, p<0.05",significantly less diversity
same,Barnesiella (genus) in microbiome,[2]; [5],Significantly Decreased
same,Brenneria (genus) in microbiome,[2]; [5],Significantly Increased
same,Candidatus soleaferrea (genus) in microbiome,[2]; [5],Significantly Decreased
same,Clostridium (genus) in microbiome,[2]; [5],Significantly Decreased
same,Dehalobacterium (genus) in microbiome,[2]; [5],Significantly Decreased
same,Dorea (genus) in microbiome,[2]; [5],Significantly Decreased
same,Erysipelatoclostridium (genus) in microbiome,[2]; [5],Significantly Increased
same,Escherichia (genus) in microbiome,[2]; [5],Significantly Increased
same,Flavonifractor (genus) in microbiome,[2]; [5],Significantly Decreased
same,Lachnoclostridium (genus) in microbiome,[2]; [5],Significantly Decreased
same,Oscillibacter (genus) in microbiome,[2]; [5],Significantly Decreased
same,Oscillospira (genus) in microbiome,[2]; [5],Significantly Decreased
same,Parabacteroides (genus) in microbiome,[2]; [5],Significantly Increased
same,Peptoclostridium (genus) in microbiome,[2]; [5],Significantly Increased
same,Shigella (genus) in microbiome,[2]; [5],Significantly Increased
same,Sutterella (genus) in microbiome,[2]; [5],Significantly Increased
same,Bacteroidetes (phylum) in microbiome,"[2]; week 4, not marked as significant",decreased
same,Blood HDL level at day 28,[3]; [6],statistically significant decrease
same,Blood HbA1c levels at day 28,[3]; [6],no statistically significant difference
same,Blood LDL cholesterol levels at day 28,[3]; [6],no statistically significant difference
same,Blood bile acid levels at day 28,[3]; [6],no statistically significant difference
same,Blood insulin levels at day 28,[3]; [6],no statistically significant difference
same,Blood total cholesterol level (LDL plus HDL) at day 28,[3]; [6],almost significant decrease
same,Body weight change at day 28,[3]; [6],no statistically significant difference
same,Cumulative food consumption over 28 days,[3]; [6],no statistically significant difference
same,Fasting blood glucose level at day 28,[3]; [6],no statistically significant difference
same,GM-CSF in blood at day 28,[3]; [6],significant decreases
same,IFNγ in blood at day 28,[3]; [6],significant decreases
same,IL-5 in blood at day 28,[3]; [6],significant decreases
same,IL-10 in blood at day 28,[3]; [6],significant decreases
same,IL-12 in blood at day 28,[3]; [6],significant decreases
same,KC/CXCL1 in blood at day 28,[3]; [6],significant decreases
same,M-CSF in blood at day 28,[3]; [6],significant decreases
same,"Change in granulocyte number, pre-dose to day 28",[3]; [7],trend of increasing change
same,"Change in lymphocyte and white blood cell numbers and percentage, pre-dose to day 28",[3]; [7],trend of increasing change
same,"Change in monocyte number and percentage, pre-dose to day 28",[3]; [7],trend of increasing change
same,Average daily individual food intake,"[3]; 28 days, DA vs vehicle",no difference
same,Body weight after treatment for 28 days,[3]; compared to vehicle-treated controls,noticeable body weight decrease
same,Biomarker (cytokine) effects after iv dosing,"healthy mouse; iv bolus QD, 1 mg/kg and 3 mg/kg (either iv dose)",no biomarker (cytokine) effects
same,Side effects by route of administration,healthy mouse; seen only with iv administration (1 and 3 mg/kg QD),toxic side effects
